The source of these data is US8008354B2, “Death receptor sensitizing compounds and methods of use therefor” (Burnham Institute for Medical Research, priority 2006, dated 2011).

Assay [1] has as its system PPC-1, OVCAR-3, T47D, MDA-MB-468 and DU 145 cells. Put plainly: MTS viability with CH-11 after FLIP siRNA transfection. Format: cell-based. To be noted: PPC-1 cells transfected with FLIP siRNA 10 nM. The method, then:
FIG. 8. Decreases in FLIP by compound 5809354 are functionally important. (A) PPC-1, OVCAR-3, T47D, and DU 145 cells (2×10^5) were seeded into 35 mm plates and transfected with double-stranded siRNA targeting FLIP (f), control ds RNA (c), or mock transfected with buffer alone (m). At 24 hours after transfection, cells were treated with CH-11 (100 ng/mL) or buffer control. Cell viability was measured by an MTS assay and expressed as a percentage of untreated control cells (mean+SD; n=3). (B) Levels of FLIP protein were measured by immunoblotting. (C) PPC-1 cells (2×10^5) were seeded into 35 mm plates and transfected with siRNAs (10 nM) targeting FLIP or luciferase as a control (CNTRL). At 24 hours after transfection, cells were treated with increasing concentrations of 5809354 with or without CH-11 anti-FAS antibody (100 ng/mL) for an additional 24 hours. Cell viability was measured by an MTS assay, and expressed as a percentage of control untreated cells (mean+SD; n=3).
Transfection of siRNA oligonucleotides. […]
To test the functional importance of decreases in FLIP by 5809354, it was determined whether knocking down FLIP could recapitulate the activity of the molecule and abrogate 5809354's ability to sensitize cells to CH-11. […]

Assay [2] concerns caspase 8. Put plainly: Caspase activation in PPC-1 cells (FITC-labeled peptides, caspase 8 immunoblot). Format: cell-based, human. To be noted: 60 μM. Here is the method: FIG. 15. 5809354 sensitizes cells to anoikis through a caspase 8 dependent mechanism. (A) PPC-1 cells (5×10^4) were cultured under suspension conditions overnight and then treated with 5809354 in the presence or absence of the pan-caspase inhibitor z-VAD-fink (100 μM). Thirty hours after incubation, anoikis was determined by flow cytometry to detect cell surface annexin V expression and PI uptake. Data represents the mean±SEM percent of viable cells or colonies compared to untreated controls. (B) PPC-1 cells (5×10^4) were cultured in suspension conditions overnight and then treated with 5809354 (60 μM). At increasing times after treatment, caspase activation was detected with FITC-labeled peptides that bind preferentially and irreversibly to caspase 3/7, 8, or 9. Caspase activation was monitored by flow cytometry to quantify the percentage of fluorescently labeled cells. […] At increasing times after incubation, total cellular protein was isolated and analyzed by SDS-PAGE immunoblotting using anti-caspase 8 and anti-actin antibodies. * indicates cleaved caspase 8. […] Thirty hours after incubation, apoptosis was measured by cell surface annexin V expression and PI uptake. […] Ten hours after incubation, cell viability was measured using the MTS assay. […] EGFP expression and nuclear morphology were analyzed by fluorescence microscopy. […]

Turning to “4-(4-chloro-2-methylphenoxy)-N-hydroxybutanamide [compound 5809354]”, in assay [1], the “enhancement of CH-11-mediated killing in the presence of FLIP siRNA” value was “the longer enhanced CH-11-mediated killing”. Further, the “sequence of caspase activation” value in assay [2] (suspension conditions) is “Active caspase 8 was detected prior to activation of caspases 3/7 and 9”. For the same substance, in assay [2] (suspension versus adherent conditions), the “caspase 8 activation by immunoblot” value is recorded as “preferentially activated caspase 8 in cells cultured under suspension but not adherent conditions”.
